Reference: patent US20140316119A1, “COMPOSITION FOR IMPROVING BIOMETABOLISM PARAMETER” (MATSUTANI CHEMICAL INDUSTRY CO., LTD., priority 2011, published 2014)

Tests used:
[1] = test system: γ-GTP, ALT, ALP, and a uric acid level; experiment: Clinical trial, 12-week D-psicose ingestion (Example 1); assay type: in vivo, human
Method: Increasing incidence of lifestyle-related diseases, diabetes in particular, has been a problem in Japan. Clinical trials were conducted with recruited diabetic subjects, and biometabolism parameter changes due to D-psicose were investigated. The recruited subjects consisted of diabetes borderline subjects (12 subjects with fasting glucose levels of 110 to 126 mg/dl), and diabetes patients (6 type 2 diabetes patients undergoing drug treatment) (all subjects, males and females, were at least 20 years of age at the time of informed consent). Five grams of D-psicose was ingested per meal for 12 weeks. The D-psicose was purchased from Izumoring Co., Ltd. The subjects were tested after 0, 2, 4, 8, and 12 weeks from the start of the ingestion, and after 4 weeks from the end of the ingestion period (week 16, post-ingestion observation). The subjects were fasted after the dinner served on the day before the testing date. The subjects were measured for γ-GTP, ALT, ALP, and a uric acid level using the service of BML Inc. A paired t-test was used for statistical comparison before and after the ingestion. In the figure, significant difference is given by *:0.05<P or **:0.01<P.

γ-GTP, ALT, and ALP = experiment: Four-week D-psicose ingestion tests (Example 2); assay type: in vivo, human; conditions: 15 g once per day, after 2 weeks
Method: Four-week D-psicose ingestion tests were conducted with recruited healthy individuals (8 individuals with a […]) and diabetes borderline subjects (6 individuals with fasting glucose levels of 110 to 126 mg/dl, or HbA1c of 5.9 to 6.5%) (all subjects, males and females, were at least 20 years of age at the time of informed consent). Each subject ingested 15 g of D-psicose once per day. The D-psicose was purchased from Izumoring Co., Ltd. The subjects were tested after 0, 2, and 4 weeks from the start of the ingestion, and after 4 weeks from the end of the ingestion period (week 8, post-ingestion observation). The subjects were fasted after the dinner served on the day before the testing date. The subjects were measured for γ-GTP, ALT, and ALP by using the service of BML Inc. A paired t-test was used for statistical comparison before and after the ingestion. In the figure, significant difference is given by *:0.05<P or **:0.01<P.

[2] = oral ingestion, cited from earlier work
[3] = healthy individuals + diabetes borderline subjects
[4] = stratified: healthy individuals, P<0.01

For O=C(CO)[C@H](O)[C@H](O)[C@H](O)CO [D-psicose], the ALT change ([1]; 5 g per meal for 12 weeks) was “lack of significant decrease”, the γ-GTP change ([1]; all subjects (diabetes borderline + diabetes patients), 5 g D-psicose per meal, after 4 weeks from the ingestion, paired t-test vs before ingestion) was “significantly decreased” and the ALP change ([1]; all subjects, 5 g D-psicose per meal, after 2 weeks from the ingestion) was “significant decrease”. For the same compound, the “uric acid level change” value ([1]; all subjects, 5 g per meal, after two weeks from the ingestion) was “significant decrease”, the “uric acid level change” value ([1]; stratified: diabetes borderline patients, after 2 weeks) was “significant decrease” and the ALP change ([1]; stratified: diabetes borderline patients, after 2 weeks, P<0.05) was “significantly decreased”. The γ-GTP change ([1]; stratified: diabetes borderline patients, after 4 weeks, P<0.01) was “significant decrease”, the ALP change ([1]; stratified: diabetes patients, after 2 weeks, P<0.05) was “significantly decreased” and the γ-GTP change ([1]; stratified: diabetes patients, after 8 weeks, P<0.01) was “significant decrease”. For the same compound, the ALP change (γ-GTP, ALT, and ALP; [3]) was “significantly decreased”, the ALT change (γ-GTP, ALT, and ALP; [3]) was “significantly decreased” and the γ-GTP change (γ-GTP, ALT, and ALP; [3]) was “significantly decreased”. For the same compound, the ALP change (γ-GTP, ALT, and ALP; [4]) was “significant decrease”, the γ-GTP change (γ-GTP, ALT, and ALP; [4]) was “significant decrease” and the “share of ingested D-psicose directly absorbed but excreted into urine” value [2] was 70%. For the same compound, the “share of ingested D-psicose that reaches the large intestine, excreted into feces” value ([2]; essentially not utilized by enteric bacteria) was 30%.
